Measured values as given in patent US11286268B1, “EIF4E-inhibiting compounds and methods” (EFFECTOR THERAPEUTICS, INC., priority 2019, dated 2022).
Read-outs that look alike come from different tables or passages of the source.

Biological target: recombinant eIF4E (Homo sapiens (Human), UniProt P06730)
Test: Fluorescence polarization competition assay for eIF4E binding potency
How it was run: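 IC50 derived from fluorescence polarization over an 8-point, 3-fold compound series after 30 min room-temperature equilibration in the dark. Mix: eIF4E 75 nM pre-bound 5 min to 20 nM EDA-m^7GDP-ATTO-550; buffer 20 mM Tris pH 7.5, 100 mM NaCl, 1 mM DTT, 0.02% Tween-20; DMSO 1%.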

[1] = fluorescence polarization competition, 75 nM recombinant eIF4E, 20 nM EDA-m7GDP-ATTO-550, IC50 class, read-out: elF4E FP
[2] = inhibition of eIF4E/EDA-m7GDP-ATTO-550 binding by 50%, Table 4B calculated values, read-out: IC50

Sequence of recombinant eIF4E (P06730 whole entry): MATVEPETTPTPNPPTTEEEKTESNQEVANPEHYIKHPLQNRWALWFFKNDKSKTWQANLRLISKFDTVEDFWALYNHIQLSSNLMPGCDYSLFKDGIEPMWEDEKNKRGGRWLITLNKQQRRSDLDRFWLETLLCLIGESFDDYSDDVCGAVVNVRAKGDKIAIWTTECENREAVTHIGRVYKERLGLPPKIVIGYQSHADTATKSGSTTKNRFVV

Row | IC50 [1] [nM] | IC50 [2] [nM] | SMILES
1 | 50 to 1000 | 237 | Cc1cnc2c(C(=O)O)csc2c1-c1cc(Cl)ccc1OCCn1c(C)nc2cc(C(F)(F)F)cc(C#N)c2c1=O [compound 495]
2 | > 1000 | 1060 | Cc1nc2cc(C(F)(F)F)cc(C#N)c2c(=O)n1CCOc1ccc(Cl)cc1-c1ccnc2c1CCC2C(=O)O (centres unmarked) [compound 496]
3 | < 50 | 24.2 | Cc1nc2c(F)c(Cl)c(C(F)F)c(C#N)c2c(=O)n1CCOc1ccc(Cl)cc1-c1ccnc2c(C(=O)O)csc12 [compound 498]
4 | < 50 | 25.7 | Cc1nc2cc(C(F)(F)F)c(CN3CCOCC3)c(C#N)c2c(=O)n1CCOc1ccc(Cl)cc1-c1ccnc2c(C(=O)O)csc12 [compound 501]
5 | < 50 | 38.4 | Cc1nc2cc(C(F)(F)F)c(CN3CCN(C)CC3)c(C#N)c2c(=O)n1CCOc1ccc(Cl)cc1-c1ccnc2c(C(=O)O)csc12 [compound 502]
6 | < 50 | 8.67 | Cc1nc2cc(C(F)(F)F)c(CN(C)C)c(C#N)c2c(=O)n1CCOc1cc(F)c(Cl)cc1-c1ccnc2c(C(=O)O)csc12 [compound 503]
7 | < 50 | 22.9 | Cc1nc2c(F)cc(C(F)F)c(C#N)c2c(=O)n1CCOc1cc(F)c(Cl)cc1-c1ccnc2c(C(=O)O)csc12 [compound 504]
8 | < 50 | 43.6 | Cc1nc2cc(C(F)(F)F)c(Cl)c(C#N)c2c(=O)n1CCOc1cc(F)c(Cl)cc1-c1ccnc2c(C(=O)O)csc12 [compound 505]
9 | 50 to 1000 | 68.9 | Cc1nc2cc(F)c(F)c(C#N)c2c(=O)n1CCOc1cc(F)c(Cl)cc1-c1ccnc2c(C(=O)O)csc12 [compound 506]
10 | < 50 | 49 | Cc1nc2ccc(CCN(C)C)c(C#N)c2c(=O)n1CCOc1ccc(Cl)cc1-c1ccnc2c(C(=O)O)csc12 [compound 507]
11 | < 50 | 15.2 | Cc1nc2c(F)cc(CN(C)C)c(C#N)c2c(=O)n1CCOc1ccc(Cl)cc1-c1ccnc2c(C(=O)O)csc12 [compound 508]
12 | 50 to 1000 | 125 | Cc1nc2cc(Cl)c(CN(C)C)c(C#N)c2c(=O)n1CCOc1ccc(Cl)cc1-c1ccnc2c(C(=O)O)csc12 [compound 509]
13 | 50 to 1000 | 50.5 | Cc1nc2cc(C#N)c(CN(C)C)c(C#N)c2c(=O)n1CCOc1ccc(Cl)cc1-c1ccnc2c(C(=O)O)csc12 [compound 510]
14 | 50 to 1000 | 88 | Cc1cc2cc(C#N)c(CN(C)C)c(C#N)c2c(=O)n1CCOc1ccc(Cl)cc1-c1ccnc2c(C(=O)O)csc12 [compound 511]
15 | 50 to 1000 | 71.8 | Cc1nc2cc(CN(C)C)cc(C#N)c2c(=O)n1CCOc1ccc(Cl)cc1-c1ccnc2c(C(=O)O)csc12 [compound 512]
16 | < 50 | 11.6 | Cc1nc2cc(CCN(C)C)cc(C#N)c2c(=O)n1CCOc1ccc(Cl)cc1-c1ccnc2c(C(=O)O)csc12 [compound 513]
17 | < 50 | 39.9 | Cc1nc2cc(C(F)(F)CN(C)C)cc(C#N)c2c(=O)n1CCOc1ccc(Cl)cc1-c1ccnc2c(C(=O)O)csc12 [compound 514]
18 | < 50 | 46 | Cc1nc2cc(CN(C)C)c(C(F)F)c(C#N)c2c(=O)n1CCOc1ccc(Cl)cc1-c1ccnc2c(C(=O)O)csc12 [compound 515]
19 | < 50 | 34.4 | Cc1nc2cc(CN(C)C)c(Cl)c(C#N)c2c(=O)n1CCOc1ccc(Cl)cc1-c1ccnc2c(C(=O)O)csc12 [compound 516]
20 | < 50 | 35.7 | Cc1nc2cc(CN(C)C)c(F)c(C#N)c2c(=O)n1CCOc1ccc(Cl)cc1-c1ccnc2c(C(=O)O)csc12 [compound 517]
21 | < 50 | 16.4 | Cc1nc2c(F)c(CN(C)C)c(C(F)F)c(C#N)c2c(=O)n1CCOc1ccc(Cl)cc1-c1ccnc2c(C(=O)O)csc12 [compound 518]
22 | < 50 | 37.8 | Cc1nc2cc(C(F)(F)F)c(Cl)c(C#N)c2c(=O)n1CCOc1ccc(Cl)cc1-c1ccnc2c(C(=O)NS(C)(=O)=O)csc12 [compound 519]
23 | < 50 | 18.3 | Cc1nc2cc(Cl)c(C(F)F)c(C#N)c2c(=O)n1CCOc1ccc(Cl)cc1-c1ccnc2c(C(=O)NS(C)(=O)=O)csc12 [compound 520]
24 | 50 to 1000 | 623 | CONC(=O)c1csc2c(-c3cc(Cl)ccc3OCCn3c(C)nc4cc(C(F)(F)F)c(Cl)c(C#N)c4c3=O)ccnc12 [compound 521]
25 | < 50 | 22.7 | Cc1nc2cc(C(F)(F)F)c(CN3CCC(F)(F)CC3)c(C#N)c2c(=O)n1CCOc1ccc(Cl)cc1-c1ccnc2c(C(=O)O)csc12 [compound 522]
26 | < 50 | 34.7 | Cc1nc2cc(C(F)(F)F)c(CN(C)CC(F)F)c(C#N)c2c(=O)n1CCOc1ccc(Cl)cc1-c1ccnc2c(C(=O)O)csc12 [compound 525]

Row | IC50 [1] [nM] | IC50 [2] [nM] | SMILES
27 | 50 to 1000 | 64.1 | Cc1nc2cc(C(F)(F)F)c(CN3CCCC3)c(C#N)c2c(=O)n1CCOc1ccc(Cl)cc1-c1ccnc2c(C(=O)O)csc12 [compound 526]
28 | < 50 | 24.8 | CCN(CC)Cc1c(C(F)(F)F)cc2nc(C)n(CCOc3ccc(Cl)cc3-c3ccnc4c(C(=O)O)csc34)c(=O)c2c1C#N [compound 527]
29 | < 50 | 27.1 | Cc1nc2cc(C(F)(F)F)c(CN3CCCCC3)c(C#N)c2c(=O)n1CCOc1ccc(Cl)cc1-c1ccnc2c(C(=O)O)csc12 [compound 528]
30 | < 50 | 5.78 | Cc1cc(-c2cc(Cl)ccc2OCCn2c(C)nc3ccc(C(F)(F)CN(C)C)c(C#N)c3c2=O)c2scc(C(=O)O)c2n1 [compound 529]
31 | < 50 | 6.65 | Cc1nc2cc(C(F)F)c(CN(C)C)c(C#N)c2c(=O)n1CCOc1ccc(Cl)cc1-c1ccnc2c(C(=O)O)csc12 [compound 530]
32 | < 50 | 42.9 | Cc1nc2cc(OC(F)F)c(CN(C)C)c(C#N)c2c(=O)n1CCOc1ccc(Cl)cc1-c1ccnc2c(C(=O)O)csc12 [compound 531]
33 | < 50 | 45.1 | Cc1nc2cc(OC(F)(F)F)c(CN(C)C)c(C#N)c2c(=O)n1CCOc1ccc(Cl)cc1-c1ccnc2c(C(=O)O)csc12 [compound 532]
34 | 50 to 1000 | 62.7 | COCc1cc(F)c2cc(C)n(CCOc3ccc(Cl)cc3-c3ccnc4c(C(=O)O)csc34)c(=O)c2c1C#N [compound 533]
35 | < 50 | 30.2 | CSCc1cc(F)c2cc(C)n(CCOc3ccc(Cl)cc3-c3ccnc4c(C(=O)O)csc34)c(=O)c2c1C#N [compound 534]
36 | 50 to 1000 | 244 | Cc1nc2cc(C(F)(F)F)cc(C#N)c2c(=O)n1CCOc1ccc(Cl)cc1C1CCNC(C(=O)O)C1 (centres unmarked) [compound 535]
37 | < 50 | 46.6 | Cc1nc2cc(OC(F)F)c(Cl)c(C#N)c2c(=O)n1CCOc1ccc(Cl)cc1-c1ccnc2c(C(=O)O)csc12 [compound 537]
38 | < 50 | 22.3 | Cc1nc2cc(OC(F)F)c(C#N)c(C#N)c2c(=O)n1CCOc1ccc(Cl)cc1-c1ccnc2c(C(=O)O)csc12 [compound 538]
39 | < 50 | 47.2 | Cc1nc2cc(OC(F)F)c(C(F)F)c(C#N)c2c(=O)n1CCOc1ccc(Cl)cc1-c1ccnc2c(C(=O)O)csc12 [compound 539]
40 | < 50 | 14 | Cc1nc2cc(OC(F)F)c(C(F)(F)F)c(C#N)c2c(=O)n1CCOc1ccc(Cl)cc1-c1ccnc2c(C(=O)O)csc12 [compound 540]
41 | < 50 | 49.1 | Cc1nc2cc(OC(F)F)c(OC(F)F)c(C#N)c2c(=O)n1CCOc1ccc(Cl)cc1-c1ccnc2c(C(=O)O)csc12 [compound 541]
42 | < 50 | 20.2 | Cc1nc2cc(OC(F)(F)F)c(Cl)c(C#N)c2c(=O)n1CCOc1ccc(Cl)cc1-c1ccnc2c(C(=O)O)csc12 [compound 542]
43 | < 50 | 38.2 | Cc1nc2cc(OC(F)(F)F)c(C#N)c(C#N)c2c(=O)n1CCOc1ccc(Cl)cc1-c1ccnc2c(C(=O)O)csc12 [compound 543]
44 | < 50 | 7.81 | Cc1nc2cc(F)c(OC(F)F)c(C#N)c2c(=O)n1CCOc1ccc(Cl)cc1-c1ccnc2c(C(=O)O)csc12 [compound 545]
45 | < 50 | 43.6 | Cc1nc2cc(Cl)c(OC(F)F)c(C#N)c2c(=O)n1CCOc1ccc(Cl)cc1-c1ccnc2c(C(=O)O)csc12 [compound 546]
46 | 50 to 1000 | 134 | Cc1nc2cc(C#N)c(OC(F)F)c(C#N)c2c(=O)n1CCOc1ccc(Cl)cc1-c1ccnc2c(C(=O)O)csc12 [compound 547]
47 | < 50 | 47.2 | Cc1nc2cc(C(F)F)c(OC(F)F)c(C#N)c2c(=O)n1CCOc1ccc(Cl)cc1-c1ccnc2c(C(=O)O)csc12 [compound 548]
48 | < 50 | 19.3 | Cc1nc2cc(C(F)(F)F)c(OC(F)F)c(C#N)c2c(=O)n1CCOc1ccc(Cl)cc1-c1ccnc2c(C(=O)O)csc12 [compound 549]
49 | 50 to 1000 | 87.8 | Cc1nc2cc(Cl)c(OC(F)(F)F)c(C#N)c2c(=O)n1CCOc1ccc(Cl)cc1-c1ccnc2c(C(=O)O)csc12 [compound 550]
50 | < 50 | 29.2 | Cc1nc2cc(C(F)F)c(OC(F)(F)F)c(C#N)c2c(=O)n1CCOc1ccc(Cl)cc1-c1ccnc2c(C(=O)O)csc12 [compound 551]
51 | 50 to 1000 | 50.9 | Cc1nc2cc(CN(C)C)c(OC(F)(F)F)c(C#N)c2c(=O)n1CCOc1ccc(Cl)cc1-c1ccnc2c(C(=O)O)csc12 [compound 552]

Row | SMILES | IC50 [1] [nM] | IC50 [2] [nM]
52 | Cc1nc2cc(C(F)(F)F)c(CN3[C@@H]4CC[C@H]3COC4)c(C#N)c2c(=O)n1CCOc1ccc(Cl)cc1-c1ccnc2c(C(=O)O)csc12 [compound 523] | < 50 | 23.9
